Measured values published in publication PMC7582957, “A Fluorescence Polarization-Based High-Throughput Screen to Identify the First Small-Molecule Modulators of the Human Adenylyltransferase HYPE/FICD” (International Journal of Molecular Sciences, 2020).
Residue numbers refer to the chain shown, from its start. pIC50: −log10 of the molar value.

Key:
Format in all cases: biochemical
Δ102 HYPE (HYPE103-456) [1] = target: T1, Δ102 HYPE (HYPE103-456) (Homo sapiens, UniProt Q9BVA6); assay: fluorescence polarization autoAMPylation with Fl-ATP; conditions: activator; detergent-less minimal buffer 50 mM HEPES pH 7.5, 1 mM MnCl2, 25 nM Fl-ATP, 0.4 µM enzyme, room temperature; unreliable
T1 construct: gene FICD; aa 103-456, lacks TM domain and N-terminus; His6-SUMO tag cleaved by ULP1; pSMT3, E. coli BL21-DE3-RILP; cobalt and size-exclusion purified
T1 sequence (Q9BVA6 103-456): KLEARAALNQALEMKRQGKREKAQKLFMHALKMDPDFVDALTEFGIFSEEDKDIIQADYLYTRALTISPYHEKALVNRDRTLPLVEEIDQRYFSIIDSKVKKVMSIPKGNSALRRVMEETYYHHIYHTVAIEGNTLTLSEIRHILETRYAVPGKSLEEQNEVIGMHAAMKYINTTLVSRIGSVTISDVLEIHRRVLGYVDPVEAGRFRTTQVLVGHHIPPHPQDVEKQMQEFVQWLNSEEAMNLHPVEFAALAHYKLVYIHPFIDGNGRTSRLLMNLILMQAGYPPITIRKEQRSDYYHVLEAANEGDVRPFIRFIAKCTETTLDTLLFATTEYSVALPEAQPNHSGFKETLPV
Excerpt: fluorescence polarization autoAMPylation with Fl-ATP on Δ102 HYPE (HYPE103-456) | robust dose-dependencies among all activators, with low micromolar EC50 values

Δ102 HYPE (HYPE103-456) [2] = target: T2, Δ102 HYPE (HYPE103-456) (Homo sapiens, UniProt Q9BVA6, E234G); assay: as above
T2 construct: gene FICD; aa 103-456, lacks TM domain and N-terminus; His6-SUMO tag cleaved by ULP1; pSMT3, E. coli BL21-DE3-RILP; cobalt and size-exclusion purified
T2 sequence (Q9BVA6 103-456 E234G): T1 sequence (Q9BVA6 103-456) with E132G
Excerpt: fluorescence polarization autoAMPylation with Fl-ATP on Δ102 HYPE (HYPE103-456) | I1 and I3 were in the mid-micromolar range | we obtained a low micromolar inhibitory potency for I2

Δ45 HYPE = target: T3, Δ45 HYPE (Homo sapiens, UniProt Q9BVA6); assay: in-gel fluorescence autoAMPylation with Fl-ATP; conditions: activator; same, with 0.1% Triton X-100
T3 construct: gene FICD; aa 46-456, TM domain deleted; His6-SUMO tag cleaved by ULP1; pSMT3, E. coli BL21-DE3-RILP; cobalt and size-exclusion purified
T3 sequence (Q9BVA6 46-456): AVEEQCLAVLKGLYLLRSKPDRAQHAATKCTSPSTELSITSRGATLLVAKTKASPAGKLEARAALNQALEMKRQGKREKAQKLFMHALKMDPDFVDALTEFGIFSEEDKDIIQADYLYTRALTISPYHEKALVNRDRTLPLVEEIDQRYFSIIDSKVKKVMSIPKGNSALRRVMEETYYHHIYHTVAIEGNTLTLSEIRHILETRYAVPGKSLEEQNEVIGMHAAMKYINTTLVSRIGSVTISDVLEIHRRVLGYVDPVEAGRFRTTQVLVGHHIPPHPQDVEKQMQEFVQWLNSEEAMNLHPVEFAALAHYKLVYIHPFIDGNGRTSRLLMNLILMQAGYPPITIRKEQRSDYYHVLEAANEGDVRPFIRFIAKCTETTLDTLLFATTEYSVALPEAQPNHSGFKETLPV

Row | SMILES | EC50 (Δ102 HYPE (HYPE103-456) [1]) [µM] | pIC50 (Δ102 HYPE (HYPE103-456) [2]) | further results
1 | CCCCC(CC)CN1CN(CC(CC)CCCC)CC(C)(N)C1 (stereo not shown) [A3, Hexetidine] | 13.144 |  | 
2 | CCCCCCCCCCCCCCCC[N+](C)(C)CCN(Cc1ccc(OC)cc1)c1ncccn1 [A5, Thonzonium Bromide] | 10.305 |  | 
3 | COc1cc(-c2ccc(N=Nc3ccc4c(S(=O)(=O)O)cc(S(=O)(=O)O)c(N)c4c3O)c(OC)c2)ccc1N=Nc1ccc2c(S(=O)(=O)O)cc(S(=O)(=O)O)c(N)c2c1O [I3, Chicago Sky Blue] |  | 4.65 | 
4 | O=C(O)C1=CC(=C(c2ccc(O)c(C(=O)O)c2)c2ccc(O)c(C(=O)O)c2)C=CC1=O [I2, Aurintricarboxylic Acid] |  | 6.46 | 
5 | Cc1cc(-c2ccc(N=Nc3ccc4c(S(=O)(=O)O)cc(S(=O)(=O)O)c(N)c4c3O)c(C)c2)ccc1N=Nc1ccc2c(S(=O)(=O)O)cc(S(=O)(=O)O)c(N)c2c1O [I1, Evan’s Blue] |  | 4.52 | 
6 | CCCCCCCCCCCCCCCC(O)C(N)CO (racemic) [A2, DL-erythro-dihydrosphingosine] | 15.415 |  | 
7 | CC(C)(C)c1ccc(-c2cc(C[C@H]3CNCC[C@H]3CC(=O)N3CCN(c4ccc(F)cc4)CC3)no2)cc1 [A6, NAT14–350426] |  |  | in-gel fluorescence autoAMPylation with Fl-ATP (Δ45 HYPE): significant increase in bioactivity of A1 and A4–A6 (Figure 9D)
